Test results: US4956179A, “Antibacterial combination of penicillin and cephalosporin” (priority 1971, dated 1990)

Assays:
Assay type in all cases: cell-based
[1] = tested on: clinically isolated coliform bacterium (No. 9/70); assay: M.I.C., serial dilution test (Example 2); conditions: coliform No. 9/70; penicillin alone, II alone, 1:1 combination
Description: (§1) The in vitro activity of 6-(D-α-aminophenylacetamido) penicillanic acid (I), 6-[(hexahydro-1H-azepin-1-yl)methyleneamino]penicillanic acid (II) and of a combination (III) of equal parts of the two compounds against clinically isolated enterobacteria was determined in a serial dilution test. Tryptose phosphate broth, containing the appropriate concentrations of the compounds or of the combination of them, was inoculated with 0.5×10^4 -5×10^4 organisms of the various micro-organisms tested and incubated overnight at 37° C. Minimum inhibitory concentrations (M.I.C.) were taken as the concentrations of the compounds or of the combination at which no visible growth occurred.
Using the same technique as described in Example 1 the in vitro-activity of 6-[(hexahydro-1H-azepin-1-yl)methyleneamino]penicillanic acid (II), of various penicillins and of 1:1-combinations of II with the respective penicillin was determined against a clinically isolated coliform bacterium (No. 9/70).

[2] = tested on: clinically isolated strain of Proteus (Proteus Mirabilis I 190); assay: M.I.C., serial dilution test (Example 11); conditions: cephalosporin alone, II alone, 1:1 combination
Description: as §1
Using the same technique as described in Example 1 the in vitro activity of 6-[(hexahydro-1H-azepin-1-yl)methyleneamino]penicillanic acid (II), of various cephalosporins and of 1:1 combinations of II with these cephalosporins was determined against a clinically isolated strain of Proteus (Proteus Mirabilis I 190).

[3] = tested on: clinically isolated strain of Klebsiella-Enterobacter (strain 4/71); assay: M.I.C., serial dilution test (Example 10); conditions: cephalosporin alone, II alone, 1:1 combination
Description: as §1
Using the same technique as described in Example 1 the in vitro activity of 6-[(hexahydro-1H-azepin-1-yl)methyleneamino]penicillanic acid (II), of various cephalosporins previously mentioned in this specification, and of 1:1 combinations of II with these cephalosporins was determined against a clinically isolated strain of Klebsiella-Enterobacter (strain 4/71)

[4] = tested on: Proteus 12/70; assay: M.I.C., serial dilution test in tryptose phosphate broth (Example 1); conditions: Proteus strain 12/70; overnight at 37° C; III = equal parts I and II
Description: as §1

[5] = tested on: Coliform 10/70; assay: as above; conditions: Coliform strain 10/70; overnight at 37° C; III = equal parts I and II
Description: as §1

[6] = tested on: Coliform 3/70; assay: as above; conditions: Coliform strain 3/70; overnight at 37° C; III = equal parts I and II
Description: as §1

[7] = tested on: Proteus 13/70; assay: as above; conditions: Proteus strain 13/70; overnight at 37° C; III = equal parts I and II
Description: as §1

[8] = tested on: Proteus vulgaris B; assay: as above; conditions: overnight at 37° C, III = equal parts I and II
Description: as §1

[9] = tested on: Proteus 20/70; assay: as above; conditions: Proteus strain 20/70; overnight at 37° C; III = equal parts I and II
Description: as §1

[10] = tested on: Klebsiella-Enterobacter. 5/70; assay: M.I.C., serial dilution test (Example 4); conditions: Klebsiella-Enterobacter. strain 5/70; V = equal parts I and IV
Description: as §1

[11] = tested on: Coliform 16/70; assay: M.I.C., serial dilution test (Example 4); conditions: Coliform strain 16/70; V = equal parts I and IV
Description: as §1

[12] = tested on: Coliform 14/70; assay: M.I.C., serial dilution test (Example 4); conditions: Coliform strain 14/70; V = equal parts I and IV
Description: as §1

[13] = tested on: Proteus 10/70; assay: M.I.C., serial dilution test (Example 4); conditions: Proteus strain 10/70; V = equal parts I and IV
Description: as §1

[14] = tested on: Klebsiella-Enterobacter. 431; assay: M.I.C., serial dilution test (Example 4); conditions: Klebsiella-Enterobacter. strain 431; V = equal parts I and IV
Description: as §1

[15] = tested on: Proteus 7/70; assay: M.I.C., serial dilution test (Example 4); conditions: Proteus strain 7/70; V = equal parts I and IV
Description: as §1

[16] = tested on: Klebsiella-Enterobacter. 9/70; assay: M.I.C., serial dilution test (Example 4); conditions: Klebsiella-Enterobacter. strain 9/70; V = equal parts I and IV
Description: as §1

[17] = tested on: Proteus 4/70; assay: M.I.C., serial dilution test (Example 4); conditions: Proteus strain 4/70; V = equal parts I and IV
Description: as §1

[18] = tested on: Klebsiella-Enterobacter. 7/70; assay: M.I.C., serial dilution test (Example 4); conditions: Klebsiella-Enterobacter. strain 7/70; V = equal parts I and IV
Description: as §1

[19] = tested on: Klebsiella-Enterobacter. 10/70; assay: M.I.C., serial dilution test (Example 4); conditions: Klebsiella-Enterobacter. strain 10/70; V = equal parts I and IV
Description: as §1

[20] = tested on: Klebsiella-Enterobacter. 1/70; assay: M.I.C., serial dilution test (Example 4); conditions: Klebsiella-Enterobacter. strain 1/70; V = equal parts I and IV
Description: as §1

[21] = tested on: Coliform 7/70; assay: M.I.C., serial dilution test (Example 4); conditions: Coliform strain 7/70; V = equal parts I and IV
Description: as §1

[22] = tested on: Proteus 9/70; assay: M.I.C., serial dilution test (Example 4); conditions: Proteus strain 9/70; V = equal parts I and IV
Description: as §1

[23] = tested on: Coliforma strain 4; assay: MIC, serial dilution test (Example 9); conditions: 1:2 and 2:1 given as I + VII concentrations
Description: as §1
(§2) Using the technique described in Example 1 the in vitro effect of combinations of 6-(D-α-aminophenylacetamido)-penicillanic acid (I) and 6-[(N,N-diethylformamidino)-N'-amino]penicillanic acid (VII) in the ratios 1:1, 1:2 and 2:1 against clinically isolated strains of Coliforma, Klebsiella-Enterobacter and Proteus was determined in serial dilution tests.

[24] = tested on: Proteus strain 9; assay: MIC, serial dilution test (Example 9); conditions: 1:2 and 2:1 given as I + VII concentrations
Description: as §1, §2

[25] = tested on: Klebsiella-Enterobacter strain 7; assay: MIC, serial dilution test (Example 9); conditions: 1:2 and 2:1 given as I + VII concentrations
Description: as §1, §2

[26] = tested on: Klebsiella-Enterobacter strain 5; assay: MIC, serial dilution test (Example 9); conditions: 1:2 and 2:1 given as I + VII concentrations
Description: (§3) Tryptose phosphate broth, containing the appropriate concentrations of the compounds or of the combination of them, was inoculated with 0.5×10^4 -5×10^4 organisms of the various micro-organisms tested and incubated overnight at 37° C. Minimum inhibitory concentrations (M.I.C.) were taken as the concentrations of the compounds or of the combination at which no visible growth occurred.

[27] = tested on: Klebsiella-Enterobacter strain 1; assay: MIC, serial dilution test (Example 9); conditions: 1:2 and 2:1 given as I + VII concentrations
Description: as §3

[28] = tested on: clinically isolated coliform; assay: Emergence of resistance, subculturing by serial twofold broth dilution (Example 7); conditions: I + II 1:1
Description: The strain used was a clinically isolated coliform. As inocula were used bacteria from the tube with the highest concentration of compound still permitting visible growth to the naked eye after incubation at 37° C. overnight.

[29] = tested on: Coliform 9/70; assay: M.I.C., serial dilution test in tryptose phosphate broth (Example 1); conditions: Coliform strain 9/70; overnight at 37° C; III = equal parts I and II
Description: as §1

[30] = tested on: E.coli III; assay: Emergence of resistance, subculturing by serial twofold broth dilution (Example 6); conditions: passage 2; I + IV 1:1
Description: Subculturing using a serial twofold broth dilution technique was performed with 6-(D-α-amino-phenylacetamido)-penicillanic acid (I), 6-[(piperidyl-1)methyleneamino]penicillanic acid (IV) and a 1:1 combination of I+IV. As inocula were used bacteria from the tube with the highest concentration of compound still permitting visible growth to the naked eye after incubation at 37° C. overnight. The following increases in MIC-values were noted.

[31] = tested on: Klebsiella-Enterobacter strain 5; assay: MIC, serial dilution test (Example 8); conditions: VI + VII equal parts
Description: as §3

[32] = tested on: Coliforma strain 7; assay: MIC, serial dilution test (Example 8); conditions: VI + VII equal parts
Description: as §1
(§4) Using the technique described in Example 1 the in vitro activity of cephalotin (VI) and 6-[(N,N-diethylformamidino)-N'-amino]penicillanic acid (VII) and of a combination of equal parts of the compounds against clinically isolated strains of Coliforma and Klebsiella-Enterobacter was determined in serial dilution tests.

[33] = tested on: Coliforma strain 14; assay: MIC, serial dilution test (Example 8); conditions: VI + VII equal parts
Description: as §1, §4

[34] = tested on: Coliforma strain 3; assay: MIC, serial dilution test (Example 8); conditions: VI + VII equal parts
Description: as §1, §4

CC1(C)S[C@@H]2[C@H](NC(=O)[C@H](N=[N+]=[N-])c3ccccc3)C(=O)N2[C@H]1C(=O)O [6-(D-α-azidophenylacetamido)penicillanic acid]
M.I.C. [1]: 50 µg/mL

[N-]=[N+]=NCC1=C(C(=O)O)N2C(=O)C(NC(=O)Cc3cccs3)C2SC1 (centres unmarked) [EPC 821/4II]
M.I.C. [2]: 12.5 µg/mL | M.I.C. [3]: 100 µg/mL

CC1(C)S[C@@H]2[C@H](NC(=O)[C@H](N)c3ccccc3)C(=O)N2[C@H]1C(=O)O [I, 6-(D-α-aminophenylacetamido)penicillanic acid]
M.I.C. [4]: 100 µg/mL | M.I.C. [5]: 3.12 µg/mL | M.I.C. [6]: 1.56 µg/mL | M.I.C. [7]: 100 µg/mL | M.I.C. [8]: 50 µg/mL | M.I.C. [9]: > 100 µg/mL | M.I.C. [10]: 100 µg/mL | M.I.C. [11]: 3.12 µg/mL | M.I.C. [12]: 6.25 µg/mL | M.I.C. [13]: 1.56 µg/mL | M.I.C. [14]: 100 µg/mL | M.I.C. [15]: 1.56 µg/mL | M.I.C. [16]: 50 µg/mL | M.I.C. [17]: 1.56 µg/mL | M.I.C. [18]: > 100 µg/mL | M.I.C. [19]: 50 µg/mL | M.I.C. [20]: 50 µg/mL | M.I.C. [21]: 3.12 µg/mL | M.I.C. [22]: 6.25 µg/mL | MIC [23]: 3.12 µg/mL | MIC [24]: 3.12 µg/mL | MIC [25]: > 100 µg/mL | MIC [26]: 100 µg/mL | MIC [27]: 50 µg/mL | MIC ([28]; passage 1): 3,12 μg/ml

CC1(C)S[C@@H]2[C@H](N=CN3CCCCCC3)C(=O)N2[C@H]1C(=O)O [II, 6-[(hexahydro-1H-azepin-1-yl)methyleneamino]penicillanic acid]
M.I.C. [2]: 100 µg/mL | M.I.C. [6]: 12.5 µg/mL | M.I.C. [29]: 3.12 µg/mL | MIC ([28]; passage 0): 0.39 µg/mL | MIC ([28]; passage 1): 6.25 µg/mL | MIC ([28]; passage 2): 25 µg/mL | MIC ([28]; passage 3): 25 µg/mL | MIC ([28]; passage 4): 25 µg/mL | MIC ([28]; passage 5): 25 µg/mL | MIC ([28]; passage 7): 25 µg/mL | MIC ([28]; passage 8): 25 µg/mL

CC1(C)S[C@@H]2[C@H](N=CN3CCCCC3)C(=O)N2[C@H]1C(=O)O [IV, 6-[(piperidyl-1)-methyleneamino]penicillanic acid]
MIC [30]: 6.25 µg/mL | M.I.C. [11]: 1.56 µg/mL | M.I.C. [12]: 3.12 µg/mL | M.I.C. [21]: 1.56 µg/mL

CC(=O)OCC1=C(C(=O)O)N2C(=O)[C@@H](NC(=O)Cc3cccs3)[C@H]2SC1 [VI, cephalotin]
M.I.C. [2]: 3.12 µg/mL | MIC [31]: 25 µg/mL | MIC [32]: 12.5 µg/mL | MIC [33]: 12.5 µg/mL | MIC [34]: 6.25 µg/mL | M.I.C. [3]: 50 µg/mL

CCN(C=N[C@@H]1C(=O)N2[C@@H]1SC(C)(C)[C@@H]2C(=O)O)CC [VII, 6-[(N,N-diethylformamidino)-N'-amino]penicillanic acid]
MIC [23]: 3.12 µg/mL | MIC [24]: 100 µg/mL | MIC [25]: > 100 µg/mL | MIC [26]: > 100 µg/mL | MIC [27]: > 100 µg/mL | MIC [31]: > 100 µg/mL | MIC [33]: 12.5 µg/mL | MIC [34]: 6.25 µg/mL

CC1(C)S[C@@H]2[C@H](NC(=O)Cc3ccccc3)C(=O)N2[C@H]1C(=O)O [benzylpenicillin]
M.I.C. [1]: 25 µg/mL

CC1(C)S[C@@H]2[C@H](NC(=O)C(C(=O)O)c3ccccc3)C(=O)N2[C@H]1C(=O)O (stereo partly drawn) [α-carboxybenzylpenicillin]
M.I.C. [1]: 12.5 µg/mL
